Data published in patent publication US20140044797A1, “PROSTACYCLIN AND ANALOGS THEREOF ADMINISTERED DURING SURGERY FOR PREVENTION AND TREATMENT OF CAPILLARY LEAKAGE” (Rigshospitalet, priority 2011, published 2014).

Key:
[1] = in vivo; cited from earlier work
[2] = epoprostenol sodium compared with iloprost; cited from earlier work
blood coagulation = test: Thrombelastography (TEG) of whole blood during Flolan infusion; format: in vivo, healthy humans; settings: Flolan 4 ng/kg/min i.v. for 2 h; samples after 60 and 120 min infusion vs baseline; 6 healthy volunteers; kaolin
From the text: The TEG analyzer uses a small whole blood sample in a rotating cup and a pin suspended in the blood by a torsion wire, which is monitored for motion. To speed up the clot formation, a standardized amount of an activator of coagulation (e.g. Kaolin, tissue factor) may be added to the cup just before the pin is placed in the cup. The torque of the rotating cup is transmitted to the immersed pin only after fibrin and/or fibrin-platelet bonding has linked the cup and pin together. The strength and rate of these bonds affect the magnitude of the pin motion such that strong clots move the pin directly in phase with cup motion. Thus, the TEG technology documents the interaction of platelets with the protein coagulation cascade from the time of placing the blood in the analyzer until initial fibrin formation, clot rate strengthening and fibrin-platelet bonding via GPIIb/IIIa, through eventual clot lysis. The TEG R parameter reflects the initiation phase, reaction time, from start of coagulation until the first fibrin band is formed; the Angle (α) represents the increase in clot strength, clot kinetics, correlating with the thrombin generation. The maximal amplitude (MA) parameter reflects maximal clot strength i.e. the maximal elastic modus of the clot.
Six healthy volunteers were administered Flolan (prostacyclin analog) intravenously at a dose of 4 ng/kg/min for 2 h. Blood samples for whole blood viscoelastical assay (Thrombelastography [TEG]) and whole blood platelet aggregation (Multiplate) was obtained before infusion of Flolan, after 60 min infusion of Flolan and after 120 min infusion of Flolan.
With regard to the TEG assay this was performed as recommended by the manufacturer and 340 μl are mixed with 20 μl CaCl 0.2 M (final concentration 11.1 mM in the cup) and kaolin at 37° C. after which the haemostatic activity was recorded as shown in WO 2010/075861.

platelet aggregation = test: Multiplate whole blood impedance aggregometry during Flolan infusion; format: in vivo, healthy humans; settings: Flolan 4 ng/kg/min i.v. for 2 h; after 60 and 120 min infusion; any of the agonists investigated (ASPI, COL, TRAP, ADP); 6 volunteers
From the text: Multiplate whole blood aggregometry is a platelet function test, (Multiplate®, Dynabyte Medical, Munich, Germany). […] The increase of impedance by the attachment of platelets onto the Multiplate sensors is transformed to arbitrary aggregation units (AU) and plotted against time. The aggregation can then be measured in AUC*min (area under the curve*min) determined by the plot of units against time. Additionally, the aggregation can also be expressed in units (U) (1 unit=10 AU*min). Multiplate thereby allows analyzing the effect of compounds on platelet aggregation. […] Blood samples for whole blood viscoelastical assay (Thrombelastography [TEG]) and whole blood platelet aggregation (Multiplate) was obtained before infusion of Flolan, after 60 min infusion of Flolan and after 120 min infusion of Flolan. Whole blood impedance aggregometry was analyzed by the Multiple Platelet function Analyzer (MultiPlate® analyzer). […]

thrombomodulin = test: Plasma biomarker ELISA after Flolan infusion: thrombomodulin; format: in vivo, healthy individuals; settings: 4 ng/kg/min i.v. for 2 h; 8 healthy volunteers; plasma 0-24 h; effect continuing several hours after ceasing infusion
Procedure: (§1) Eight healthy volunteers were administered Flolane (Prostacyclin) intravenously at a dose of 4 ng/kg/min for 2 h. Blood samples were analyzed for plasma biomarkers indicative of endothelial cell (thrombomodulin, PAI-1) and glycocalyx (syndecan-1) activation and/or damage, cellular necrosis (histone-complexed DNA fragments, HMGB1) and anticoagulation (protein C, antithrombin, TFPI) at the following time points: Before the infusion (0 h), immediately after ceasing the infusion (2 h) and then 4 h, 5 h, 6 h, 8 h and 24 h after starting the infusion.
(§2) The concentration of the individual biomarkers in plasma was analyzed by commercially available ELISA kits according to the manufactures recommendations. Paired t-tests with p-values <0.05 were considered significant.

Protein C = test: Plasma biomarker ELISA after Flolan infusion: Protein C; format: in vivo, healthy individuals; settings: 4 ng/kg/min i.v. for 2 h; 8 healthy volunteers; in the hours after ceasing the infusion
Procedure: as §1, §2

PAI-1 = test: Plasma biomarker ELISA after Flolan infusion: PAI-1; format: in vivo, healthy individuals; settings: 4 ng/kg/min i.v. for 2 h; 8 healthy volunteers; plasma 0-24 h
Procedure: as §1, §2

antithrombin = test: Plasma biomarker ELISA after Flolan infusion: antithrombin; format: in vivo, healthy individuals; settings: 4 ng/kg/min i.v. for 2 h; 8 healthy volunteers; plasma 0-24 h
Procedure: as §1, §2

[3] = system: histone-complexed DNA fragments; test: Plasma biomarker ELISA after Flolan infusion: histone-complexed DNA fragments; format: in vivo, healthy individuals; settings: 4 ng/kg/min i.v. for 2 h; 8 healthy volunteers; plasma 0-24 h
Procedure: as §1, §2

HMGB1 = test: Plasma biomarker ELISA after Flolan infusion: HMGB1; format: in vivo, healthy individuals; settings: 4 ng/kg/min i.v. for 2 h, 8 healthy volunteers
Procedure: as §1, §2

syndecan-1 = test: Plasma biomarker ELISA after Flolan infusion: syndecan-1; format: in vivo, healthy individuals; settings: 4 ng/kg/min i.v. for 2 h; 8 healthy volunteers; plasma 0-24 h
Procedure: as §1, §2

TFPI = test: Plasma biomarker ELISA after Flolan infusion: TFPI; format: in vivo, healthy individuals; settings: 4 ng/kg/min i.v. for 2 h; 8 healthy volunteers; plasma 0-24 h
Procedure: as §1, §2

[4] = infusion in doses below 2 ng/kg/minute; cited from earlier work

In the case of `CCCCC[C@H](O)CC[C@@H]1[C@H]2Cc3cccc(OCC(=O)O)c3C[C@H]2C[C@H]1O` [treprostinil], the half time [1] is given as “less than 4 hours”.
For `CC#CCC(C)[C@H](O)/C=C/[C@@H]1[C@H]2c3cccc(CCCC(=O)O)c3O[C@H]2C[C@H]1O` (mixture of isomers) [beraprost], the half time [1] is given as 35 to 40 min.
For `CC#CCC(C)[C@H](O)/C=C/[C@@H]1[C@H]2C/C(=C/CCCC(=O)O)C[C@H]2C[C@H]1O` (stereo partly shown) [iloprost], the half time [1] is given as 20 to 30 min and the relative potency [2] is given as “equipotent”.
With `CCCCC[C@H](O)/C=C/[C@@H]1[C@H]2C/C(=C/CCCC(=O)O)O[C@H]2C[C@H]1O` [Flolan, epoprostenol sodium] the “TEG Angle vs baseline” value (blood coagulation) was “No significant difference”, the “TEG MA vs baseline” value (blood coagulation) was “No significant difference” and the “TEG R vs baseline” value (blood coagulation) was “No significant difference”. For the same compound, the “Multiplate values vs baseline” value (platelet aggregation) was “no significant difference”, the “circulating level of thrombomodulin” value (thrombomodulin) was “marked decrease” and the “circulating level of Protein C” value (Protein C) was “decreased”. The “circulating level of PAI-1” value (PAI-1) was “declined”, the “circulating level of antithrombin” value (antithrombin) was “decreased” and the “cell necrosis biomarker histone-complexed DNA fragments” value [3] was “did not influence”. For the same compound, the “HMGB1 at 5 h” value (HMGB1; 5 h after starting infusion, p=0.056) was “tendency towards a reduction”, the “cell necrosis biomarker HMGB1” value (HMGB1; plasma 0-24 h) was “did not influence” and the “glycocalyx shedding (syndecan-1)” value (syndecan-1) was “did not induce or influence”. For the same compound, the “circulating level of TFPI” value (TFPI) was “did not induce or influence glycocalyx shedding (syndecan-1) (FIG. 6A) or affected the circulating level of TFPI”, the half time [1] was 0.5 to 3 min and the relative potency [2] was “equipotent”. For the same compound, the “duration of hypotensive episodes” value [4] was 1 to 2 h, the “side effects: bleeding tendency” value [4] was “no bleeding tendency” and the “side effects: hypotensive episodes” value [4] was “a few self-limiting hypotensive episodes”.
